Measurements reported in patent US20230159889A1, “USE OF N-BUTYLIDENEPHTHALIDE IN DOPAMINERGIC PROGENITOR CELL TRANSPLANTATION” (GWO XI STEM CELL APPLIED TECHNOLOGY CO., LTD., priority 2018, published 2023).

Experiments:
[1] = system: dopaminergic progenitor cells; assay: Influence of BP on differentiation of dopaminergic progenitor cells into dopaminergic neurons (cell morphology, inverted microscope); assay type: cell-based; conditions: FIG. 3
Method: (§1) The dopaminergic progenitor cells provided by [Preparation Example B-2] were cultured in the conditional medium provided by [Preparation Example A-2] at 37° C., 5% CO2 for 24 hours. Then, the cells were divided into six groups (see FIGS. 3 and 4), three groups (see FIGS. 5 and 6) and independently subjected to the following treatments: • (1) Control group: cells were continuously cultured in the conditional medium provided by [Preparation Example A-2] […]
To understand the influence of BP on the differentiation of dopaminergic progenitor cells into dopaminergic neurons, the differentiation process of the cells in control group provided by [Preparation Example C] was continuously taken from a JuLI™Br cell imaging analyzer (purchased from NanoEnTek company) (results are shown in FIG. 2), and the cell morphology in each group provided by [Preparation Example C] was taken from and recorded by an inverted microscope (purchased from Nikon company) when the cells were continuously cultured for six days (results are shown in FIG. 3).

[2] = system: dopaminergic neurons; assay: Influence of BP on migration of dopaminergic neurons out from neurospheres (Sox-1/TH/DAPI fluorescent staining); assay type: cell-based; conditions: FIG. 4
Method: as §1
To understand the influence of BP on dopaminergic neurons, when the cells in each group provided by [Preparation Example C] were continuously cultured for ten days, the cells were fixed and then subjected to fluorescent staining with the antibodies including Sox-1 (purchased from Santa Cruz company, product number: SC-17318), TH (tyrosine hydroxylase; purchased from Millipore company, product number: MAB152) and DAPI (diamidino-2-phenylindole; purchased from ThermoFisher Scientific company, product number: D1306), respectively (Sox-1 expresses in dopaminergic progenitor cells, TH expresses in dopaminergic neurons, and DAPI is a nuclear-specific dye). Then, the dopaminergic progenitor cells (green fluorescence), dopaminergic neurons (red fluorescence) and nuclei (blue fluorescence) were observed by an upright fluorescent microscope (purchased from Nikon Company).

In the case of CCCC=C1OC(=O)c2ccccc21 [BP, n-butylidenephthalide], the “influence on the normal neural differentiation of dopaminergic progenitor cells” value ([1]; BP 5-100 µM, six days) is reported as “does not influence”, the “formation of nerve fibers” value ([1]; BP at 5, 10, 20, 50 and 100 µM in conditional medium (Purmorphamine + FGF-8b), cultured six days) is reported as “can be observed” and the “phenomenon of dopaminergic neurons migrating out from the neurospheres, comparison among BP concentrations” value ([2]; BP 50 µM ("BP (50)" group), ten days) is reported as “most significant”. For the same compound, the “phenomenon of dopaminergic neurons migrating out from the neurospheres, compared to control group” value ([2]; BP at 5, 10, 20, 50 and 100 µM in conditional medium, cultured ten days) was “can be observed”.
